# Experimental data: patent US20030215888A1, “Androgen receptor overexpressing skeletal myoblasts” (Pfizer Inc., priority 2002, published 2003)
# Like-named read-outs stand apart in the source and are kept apart here.
# What was measured:
# C2hAR57 cells = settings: C2hAR57, 100 nM DHT, 1, 2 or 3 days in fusion medium
# Text: Fusion medium was changed daily. C2hAR57 cells at low density in high mitogen growth medium appeared as small, adherent mononuclear cells.
# [1] = system: IGFBP4 transcripts in C2C12 cells; settings: C2C12, 100 nM DHT
# Experimental: (§1) Day zero samples were harvested just prior to the induction of differentiation. […] Total RNA was isolated using Trizol®, and RNA concentration was determined by UV spectroscopy. Samples containing 20 micrograms of total RNA were separated by electrophoresis on formaldehyde-containing agarose gels, transferred to Duralon-UV™ nylon membrane (Stratagene, La Jolla, Calif.) by capillary blotting in 5×SSPE and probed sequentially for IGFBP4, IGF-II and 18S ribosomal RNA. DNA fragments used for probes were generated by reverse transcription polymerase chain reaction using rat skeletal muscle poly A+ RNA as template. […] Probes were denatured by boiling and used at a concentration of 1-2×10^6 dpm/ml hybridization solution (50% formamide, 6×SSC, 1% SDS, 15×Denhardt's solution, 0.1 mg/ml sheared salmon sperm DNA). Following hybridization at 42° C. for at least 24 hours, the membranes were washed to moderate stringency with 0.3×SSC/0.1% SDS at 55° C. […] Between successive probings, the membrane was stripped by incubation at 70° C. for one to three hours in a solution consisting of 5 mM Tris HCl, pH 8, 0.2 mM Na2EDTA, 0.05% sodium pyrophosphate and 0.1×Denhardt's solution. The imaging plate was exposed for 42 hours and 90 minutes to the IGFBP4 and IGF-II hybridizations, respectively. The 18S signal was used to normalize the hybridization signals from each of the other probes.
# [2] = system: IGF-II transcripts in C2hAR57 cells; settings: C2hAR57, 100 nM DHT
# Experimental: as §1
# [3] = system: IGFBP4 transcripts in C2hAR57 cells; settings: C2hAR57, 100 nM DHT
# Experimental: as §1
smiles,measurement,setting,value
"C[C@]12CCC(=O)C[C@@H]1CC[C@@H]1[C@@H]2CC[C@]2(C)[C@@H](O)CC[C@@H]12 [DHT, dihydrotestosterone]",rate of myotube formation,C2hAR57 cells,more rapidly
same,magnitude of IGFBP4 suppression,[1]; 0 days in fusion medium,20%
same,magnitude of IGFBP4 suppression,[1]; 1 day in fusion medium,51%
same,magnitude of IGFBP4 suppression,[1]; 2 days in fusion medium,44%
same,increase of IGF-II transcripts,[2]; 0 days in fusion medium,10.2 ×
same,increase of IGF-II transcripts,[2]; 1 day in fusion medium,3.6 ×
same,increase of IGF-II transcripts,[2]; 2 days in fusion medium,2 ×
same,magnitude of IGFBP4 suppression,[3]; 0 days in fusion medium,75%
same,magnitude of IGFBP4 suppression,[3]; 1 day in fusion medium,86%
same,magnitude of IGFBP4 suppression,[3]; 2 days in fusion medium,70%
